Assay results taken from US7259271B2, “Peripherally-selective inhibitors of dopamine-β-hydroxylase and method of their preparation” (Portela & C.A., S.A., priority 2002, dated 2007).

Legend:
[1] = prior art finding; cited from earlier work
[2] = target: T1, human DβH (Homo sapiens, UniProt P09172); test: DβH activity (β-hydroxylation of dopamine to noradrenaline) in SK-N-SH cells; assay type: cell-based; settings: for remaining activity at 5 µM: SK-N-SH, 0.75 h, read-out: DβH activity in SK-N-SH cells, Mean ± SEM; for IC50 values against human DβH activity (in words): concentration-dependent decrease in β-hydroxylation of dopamine; for IC50: read-out: IC50 for inhibition of DβH in SK-N-SH cells
T1 construct: SK-N-SH cells (ATCC HTB-11), a human neuroblastoma derived cell line, were used as a source of human DβH; host or cells: SK-N-SH cells
T1 sequence (P09172 1-617): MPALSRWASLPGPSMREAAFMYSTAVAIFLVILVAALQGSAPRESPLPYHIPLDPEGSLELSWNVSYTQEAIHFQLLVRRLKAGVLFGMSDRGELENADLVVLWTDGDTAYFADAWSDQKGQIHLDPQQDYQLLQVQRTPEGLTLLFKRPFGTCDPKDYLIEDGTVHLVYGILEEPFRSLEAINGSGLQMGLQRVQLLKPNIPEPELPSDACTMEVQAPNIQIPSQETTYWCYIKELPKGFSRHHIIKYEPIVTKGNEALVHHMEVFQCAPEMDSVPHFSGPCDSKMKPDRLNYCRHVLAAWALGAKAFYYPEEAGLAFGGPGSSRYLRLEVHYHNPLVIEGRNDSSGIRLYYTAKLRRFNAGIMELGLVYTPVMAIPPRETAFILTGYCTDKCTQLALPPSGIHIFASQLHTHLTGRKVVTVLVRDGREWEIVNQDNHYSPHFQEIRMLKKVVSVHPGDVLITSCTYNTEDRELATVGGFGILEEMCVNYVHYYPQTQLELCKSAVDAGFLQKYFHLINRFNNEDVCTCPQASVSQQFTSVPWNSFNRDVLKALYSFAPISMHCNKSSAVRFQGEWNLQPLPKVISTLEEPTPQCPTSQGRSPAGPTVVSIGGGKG
Method: SK-N-SH cells (ATCC HTB-11), a human neuroblastoma derived cell line, were used as a source of human DβH. SK-N-SH cells cultured in 24 well plates were preincubated for 20 min in a reaction medium containing 200 mM sodium acetate, 30 mM N-ethylmaleimide, 5 μM copper sulphate, 0.5 mg/ml catalase aqueous solution, 1 mM pargyline, 10 mM sodium fumarate and 20 mM ascorbic acid. […] During preincubation and incubation, the cells were continuously shaken and maintained at 37° C. The reaction was terminated by the addition of 0.2 M perchloric acid. The acidified samples were stored at 4° C. before injection into the high pressure liquid chromatograph for the assay of noradrenaline.

[3] = system: noradrenaline tissue levels; test: Noradrenaline tissue levels in heart and brain of mice after oral administration; assay type: in vivo, mouse; settings: for recovery of initial noradrenaline tissue levels: mouse heart, at 24 h; for recovery of initial noradrenaline tissue levels / Time of maximum effect (Tmax) for noradrenaline tissue reduction / duration of action in the heart: 100 mg/kg oral; for Time of maximum effect (Tmax) for noradrenaline tissue reduction / dose at which the maximal inhibitory effect was attained: mouse left ventricle; for dose at which the maximal inhibitory effect was attained / noradrenaline levels in left ventricle / noradrenaline tissue levels in the brain parietal cortex: 9 h after oral administration; for duration of action in the heart / noradrenaline levels in left ventricle / noradrenaline tissue levels in the brain parietal cortex: mouse; for duration of action in the heart: time course
Method: (§1) Male NMRI mice or Wistar rats were obtained from Harlan-lnterfauna (Spain) and were kept 10 and 5 per cage respectively, under controlled environmental conditions (12 h light/dark cycle and room temperature 22±1° C.). Food and tap water were allowed ad libitum and experimentation was performed during daylight hours.
(§2) At time =0 h, animals were administered with either test compounds at a given dose or vehicle (water) delivered orally via gavage. At 2, 6, 9, 12, 18 and 24 h post dose, the animals were sacrificed by decapitation and heart (left atrium and left ventricle) and brain (frontal and parietal cortex) were isolated, weighed and stored in a volume of 0.2 M perchloric acid for 12 h at 4° C. in the dark. Post incubation, the resulting supernatants were collected by centrifuge filtration of incubates ([…]/10 min/˜5000 rpm, 4° C.). Supernatants were stored frozen at −80° C. until analysis. Quantification of dopamine and noradrenaline in supernatants was performed by high pressure liquid chromatography with electrochemical detection.

[4] = system: noradrenaline tissue levels; test: Noradrenaline tissue levels in heart and brain of rats after oral administration; assay type: in vivo; settings: rat; for noradrenaline tissue levels in brain parietal cortex and brain frontal cortex: 9 h after oral administration; for dose dependence of effects upon noradrenaline / time of maximum effect upon noradrenaline: oral
Method: as §1, §2

NCc1c[nH]c(=S)n1[C@H]1CCc2c(F)cc(F)cc2C1 [Compound 1, nepicastat, reference compound]
crossing of the blood brain barrier (BBB) [1]: cross the blood brain barrier
remaining activity at 5 µM [2]: 0%
IC50 values against human DβH activity (in words) [2]: low nM range
IC50 [2]: 36 nM
recovery of initial noradrenaline tissue levels [3]: 50%
Time of maximum effect (Tmax) for noradrenaline tissue reduction [3]: 9 h
dose at which the maximal inhibitory effect was attained [3]: 100 mg/kg
duration of action in the heart [3]: long acting
noradrenaline levels in left ventricle [3]: dose-dependent manner
noradrenaline tissue levels in the brain parietal cortex [3]: dose-dependent decrease
noradrenaline tissue levels in brain parietal cortex and brain frontal cortex [4]: marked decrease
dose dependence of effects upon noradrenaline [4]: dependent on the dose administered
time of maximum effect upon noradrenaline [4]: 9 h

Cl.NCCc1c[nH]c(=S)n1[C@H]1COc2c(F)cc(F)cc2C1 [Compound 4, (R)-5-(2-aminoethyl)-1-(6,8-difluorochroman-3-yl)-1,3-dihydroimidazole-2-thione hydrochloride]
inhibition of DβH activity (in words) ([2]; 5 μM, as listed in Table 1): markedly inhibit
remaining activity at 5 µM [2]: 3.3 ± 0.3%
IC50 values against human DβH activity (in words) [2]: low nM range
IC50 [2]: 105 nM
recovery of initial noradrenaline tissue levels [3]: 50%
Time of maximum effect (Tmax) for noradrenaline tissue reduction [3]: 9 h
dose at which the maximal inhibitory effect was attained [3]: 100 mg/kg
duration of action in the heart [3]: long acting
noradrenaline levels in left ventricle [3]: dose-dependent manner
noradrenaline tissue levels in the brain parietal cortex [3]: failed to affect
inhibitory effects upon noradrenaline levels in left atrium and left ventricle ([4]; 100 mg/kg oral, 9 h): more pronounced than those elicited by 1
noradrenaline tissue levels in brain parietal cortex and brain frontal cortex [4]: failed to affect
dose dependence of effects upon noradrenaline [4]: dependent on the dose administered
time of maximum effect upon noradrenaline [4]: 9 h
